Measured values from patent publication US10681909B2, “Herbicidal triazoles” (FMC Corporation, priority 2014, dated 2020).

Experiments:
field violet = experiment: Test D postemergence; assay type: in vivo, Viola arvensis; conditions: scale 0 to 100
From the text: (§1) Seeds of plant species selected from bluegrass (annual bluegrass, Poa annua), blackgrass (Alopecurus myosuroides), canarygrass (Phalaris minor), chickweed (common chickweed, Stellaria media), galium (catchweed bedstraw, Galium aparine), bromegrass, down (downy bromegrass, Bromus tectorum), Russian thistle (Salsola kali), field poppy (Papaver rhoeas), field violet (Viola arvensis), foxtail, green (green foxtail, Setaria viridis), deadnettle (henbit deadnettle, Lamium amplexicaule), ryegrass, Ital. (Italian ryegrass, Lolium multiflorum), kochia (Kochia scoparia), lambsquarters (Chenopodium album), oilseed rape (Brassica napus), pigweed (Amaranthus retroflexus), chamomile (scentless chamomile, Matricaria inodora), speedwell (bird's-eye speedwell, Veronica persica), barley, spring (spring barley, Hordeum vulgare), wheat, spring (spring wheat, Triticum aestivum), buckwheat, wild (wild buckwheat, Polygonum convolvulus), wild mustard (Sinapis arvensis), oat, wild (wild oat, Avena fatua), radish, wild (wild radish, Raphanus raphanistrum), […]), barley, winter (winter barley, Hordeum vulgare), and wheat, winter (winter wheat, Triticum aestivum) were planted into a silt loam soil and treated preemergence with test chemicals formulated in a non-phytotoxic solvent mixture which included a surfactant. At the same time, these species were planted in pots containing Sunshine Redi-Earth® planting medium comprising spaghnum peat moss, vermiculite, starter nutrients and dolomitic limestone and treated with postemergence applications of the test chemicals formulated in the same manner. Plants ranged in height from 2 to 18 cm (1- to 4-leaf stage). Treated plants and controls were maintained in a controlled growth environment for 14 to 21 d after which time all species were compared to controls and visually evaluated. […] A dash (-) response means no test result.

buckwheat, wild = experiment: Test D preemergence; assay type: in vivo, Polygonum convolvulus; conditions: for Plant response rating (0 to 100), Buckwheat, Wild: 16 g ai/ha, 0 is no effect, 100 is complete control; for Plant response rating: Buckwheat, Wild: scale 0 to 100
From the text: as §1

ryegrass, Ital. = experiment: Test D postemergence; assay type: in vivo, Lolium multiflorum; conditions: scale 0 to 100
From the text: as §1

windgrass [1] = experiment: Test D postemergence; assay type: in vivo, Apera spica-venti; conditions: scale 0 to 100
From the text: as §1

corn = experiment: Test C preemergence; assay type: in vivo, Zea mays; conditions: for Plant response rating (scale of 0 to 100 where 0 is no effect and 100 is complete control): Corn, preemergence; for Corn plant response rating (0 to 100): Preemergence, visual rating after 13 to 15 d
From the text: (§2) Seeds of plant species selected from blackgrass (Alopecurus myosuroides), ryegrass, Italian (Italian ryegrass, Lolium multiflorum), wheat (winter wheat, Triticum aestivum), galium (catchweed bedstraw, Galium aparine), corn (Zea mays), crabgrass, large (large crabgrass, Digitaria sanguinalis), foxtail, giant, (giant foxtail, Setaria faberii), johnsongrass (Sorghum halepense), lambsquarters (Chenopodium album), morningglory (Ipomoea coccinea), nutsedge, yellow (yellow nutsedge, Cyperus esculentus), pigweed (Amaranthus retroflexus), ragweed (common ragweed, Ambrosia elatior), soybean (Glycine max), barnyardgrass (Echinochloa crus-galli), oilseed rape (Brassica napus), waterhemp (common waterhemp, Amaranthus rudis), and velvetleaf (Abutilon theophrasti) were planted into a blend of loam soil and sand and treated preemergence with test chemicals formulated in a non-phytotoxic solvent mixture which included a surfactant. At the same time, plants selected from these crop and weed species and also chickweed (common chickweed, Stellaria media), oat, wild (wild oat, Avena fatua), and kochia (Kochia scoparia), were planted in pots containing Sunshine Redi-Earth® planting medium comprising spaghnum peat moss, vermiculite, starter nutrients and dolomitic limestone and treated with postemergence applications of test chemicals formulated in the same manner. Plants ranged in height from 2 to 18 cm (1- to 4-leaf stage) for postemergence treatments. […] A dash (-) response means no test result.

deadnettle = experiment: Test D preemergence; assay type: in vivo, Lamium amplexicaule; conditions: for Plant response rating (0 to 100), Deadnettle: 16 g ai/ha, 0 is no effect, 100 is complete control; for Plant response rating: Deadnettle: scale 0 to 100
From the text: as §1

soybean = experiment: Test C preemergence; assay type: in vivo, Glycine max; conditions: for Soybean plant response rating (0 to 100): Preemergence, visual rating after 13 to 15 d; for Plant response rating (scale of 0 to 100 where 0 is no effect and 100 is complete control): Soybean, preemergence, 250 g ai/ha
From the text: as §2

kochia = experiment: Test A preemergence; assay type: in vivo, Kochia scoparia; conditions: 0 to 100 scale (0 no effect, 100 complete control)
Summary of the method: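 Visual 0–100 ratings (0 no effect, 100 complete control) made roughly 10 days after treatment, comparing greenhouse-grown plants to untreated controls. Formulated test chemicals, with surfactant, went either as directed soil spray at planting or onto 2–10 cm seedlings bearing one to two leaves.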

wild mustard = experiment: Test D postemergence; assay type: in vivo, Sinapis arvensis; conditions: scale 0 to 100
From the text: as §1

Russian thistle = experiment: Test D postemergence; assay type: in vivo, Salsola kali; conditions: scale 0 to 100
From the text: as §1

waterhemp = experiment: Test C preemergence; assay type: in vivo, Amaranthus rudis; conditions: for Waterhemp plant response rating (0 to 100): Preemergence, visual rating after 13 to 15 d; for Plant response rating (scale of 0 to 100 where 0 is no effect and 100 is complete control): Waterhemp, preemergence, 250 g ai/ha
From the text: as §2

windgrass [2] = experiment: Test D preemergence; assay type: in vivo, Apera spica-venti; conditions: for Plant response rating (0 to 100), Windgrass: 16 g ai/ha, 0 is no effect, 100 is complete control; for Plant response rating: Windgrass: scale 0 to 100
From the text: as §1

ryegrass, Italian = experiment: Test C preemergence; assay type: in vivo, Lolium multiflorum; conditions: for Ryegrass, Italian plant response rating (0 to 100): Preemergence, visual rating after 13 to 15 d; for Plant response rating (scale of 0 to 100 where 0 is no effect and 100 is complete control): Ryegrass, Italian, preemergence
From the text: as §2

SMILES: Fc1ccc(-c2nc(OCC(F)(F)F)n(Cc3ccnc(C(F)(F)F)c3)n2)cc1 [Compound 30]
- Plant response rating: Field Violet (field violet; 16 g ai/ha): 75
- Plant response rating: Field Violet (field violet; 31 g ai/ha): 98
- Plant response rating: Field Violet (field violet; 62 g ai/ha): 95
- Plant response rating: Field Violet (field violet; 125 g ai/ha): 100
- Plant response rating (0 to 100), Buckwheat, Wild (buckwheat, wild): 70
- Plant response rating: Buckwheat, Wild (buckwheat, wild; 31 g ai/ha): 70
- Plant response rating: Buckwheat, Wild (buckwheat, wild; 62 g ai/ha): 85
- Plant response rating: Buckwheat, Wild (buckwheat, wild; 125 g ai/ha): 85
- Plant response rating: Ryegrass, Ital. (ryegrass, Ital.; 16 g ai/ha): 35
- Plant response rating: Ryegrass, Ital. (ryegrass, Ital.; 31 g ai/ha): 60
- Plant response rating: Ryegrass, Ital. (ryegrass, Ital.; 62 g ai/ha): 65
- Plant response rating: Ryegrass, Ital. (ryegrass, Ital.; 125 g ai/ha): 70
- Plant response rating: Windgrass (windgrass [1]; 16 g ai/ha): 45
- Plant response rating: Windgrass (windgrass [1]; 31 g ai/ha): 65
- Plant response rating: Windgrass (windgrass [1]; 62 g ai/ha): 75
- Plant response rating: Windgrass (windgrass [1]; 125 g ai/ha): 85
- Plant response rating (scale of 0 to 100 where 0 is no effect and 100 is complete control) (corn; 125 g ai/ha): 30
- Plant response rating (scale of 0 to 100 where 0 is no effect and 100 is complete control) (corn; 250 g ai/ha): 35
- Corn plant response rating (0 to 100) (corn; 31 g ai/ha): 5
- Corn plant response rating (0 to 100) (corn; 62 g ai/ha): 15
- Plant response rating (0 to 100), Deadnettle (deadnettle): 85
- Plant response rating: Deadnettle (deadnettle; 31 g ai/ha): 95
- Plant response rating: Deadnettle (deadnettle; 62 g ai/ha): 100
- Plant response rating: Deadnettle (deadnettle; 125 g ai/ha): 100
- Soybean plant response rating (0 to 100) (soybean; 31 g ai/ha): 10
- Soybean plant response rating (0 to 100) (soybean; 62 g ai/ha): 5
- Plant response rating (scale of 0 to 100 where 0 is no effect and 100 is complete control) (soybean): 40
- Plant response rating, Kochia (kochia; 125 g ai/ha): 100
- Plant response rating, Kochia (kochia; 500 g ai/ha, approx. 10 d): 100
- Plant response rating: Mustard, Wild (wild mustard; 16 g ai/ha): 90
- Plant response rating: Mustard, Wild (wild mustard; 31 g ai/ha): 100
- Plant response rating: Mustard, Wild (wild mustard; 62 g ai/ha): 100
- Plant response rating: Mustard, Wild (wild mustard; 125 g ai/ha): 100
- Plant response rating: Russian Thistle (Russian thistle; 16 g ai/ha): 80
- Plant response rating: Russian Thistle (Russian thistle; 31 g ai/ha): 90
- Plant response rating: Russian Thistle (Russian thistle; 62 g ai/ha): 90
- Plant response rating: Russian Thistle (Russian thistle; 125 g ai/ha): 90
- Waterhemp plant response rating (0 to 100) (waterhemp; 31 g ai/ha): 100
- Waterhemp plant response rating (0 to 100) (waterhemp; 62 g ai/ha): 100
- Plant response rating (scale of 0 to 100 where 0 is no effect and 100 is complete control) (waterhemp): 100
- Plant response rating (0 to 100), Windgrass (windgrass [2]): 25
- Plant response rating: Windgrass (windgrass [2]; 62 g ai/ha): 100
- Plant response rating: Windgrass (windgrass [2]; 125 g ai/ha): 100
- Ryegrass, Italian plant response rating (0 to 100) (ryegrass, Italian; 31 g ai/ha): 5
- Ryegrass, Italian plant response rating (0 to 100) (ryegrass, Italian; 62 g ai/ha): 60
- Plant response rating (scale of 0 to 100 where 0 is no effect and 100 is complete control) (ryegrass, Italian; 125 g ai/ha): 70
- Plant response rating (scale of 0 to 100 where 0 is no effect and 100 is complete control) (ryegrass, Italian; 250 g ai/ha): 70

SMILES: FC(F)(F)COc1nc(-c2ccc(Cl)cc2)nn1Cc1ccnc(C(F)(F)F)c1 [Compound 31]
- Plant response rating: Field Violet (field violet; 16 g ai/ha): 100
- Plant response rating: Field Violet (field violet; 31 g ai/ha): 100
- Plant response rating: Field Violet (field violet; 62 g ai/ha): 100
- Plant response rating: Field Violet (field violet; 125 g ai/ha): 100
- Plant response rating (0 to 100), Buckwheat, Wild (buckwheat, wild): 65
- Plant response rating: Buckwheat, Wild (buckwheat, wild; 31 g ai/ha): 75
- Plant response rating: Buckwheat, Wild (buckwheat, wild; 62 g ai/ha): 75
- Plant response rating: Buckwheat, Wild (buckwheat, wild; 125 g ai/ha): 75
- Plant response rating: Ryegrass, Ital. (ryegrass, Ital.; 16 g ai/ha): 25
- Plant response rating: Ryegrass, Ital. (ryegrass, Ital.; 31 g ai/ha): 30
- Plant response rating: Ryegrass, Ital. (ryegrass, Ital.; 62 g ai/ha): 55
- Plant response rating: Ryegrass, Ital. (ryegrass, Ital.; 125 g ai/ha): 65
- Plant response rating: Windgrass (windgrass [1]; 16 g ai/ha): 60
- Plant response rating: Windgrass (windgrass [1]; 31 g ai/ha): 70
- Plant response rating: Windgrass (windgrass [1]; 62 g ai/ha): 75
- Plant response rating: Windgrass (windgrass [1]; 125 g ai/ha): 80
- Plant response rating (scale of 0 to 100 where 0 is no effect and 100 is complete control) (corn; 125 g ai/ha): 20
- Plant response rating (scale of 0 to 100 where 0 is no effect and 100 is complete control) (corn; 250 g ai/ha): 25
- Corn plant response rating (0 to 100) (corn; 31 g ai/ha): 0
- Corn plant response rating (0 to 100) (corn; 62 g ai/ha): 0
- Plant response rating (0 to 100), Deadnettle (deadnettle): 80
- Plant response rating: Deadnettle (deadnettle; 31 g ai/ha): 80
- Plant response rating: Deadnettle (deadnettle; 62 g ai/ha): 90
- Plant response rating: Deadnettle (deadnettle; 125 g ai/ha): 100
- Soybean plant response rating (0 to 100) (soybean; 31 g ai/ha): 5
- Soybean plant response rating (0 to 100) (soybean; 62 g ai/ha): 5
- Plant response rating (scale of 0 to 100 where 0 is no effect and 100 is complete control) (soybean): 10
- Plant response rating, Kochia (kochia; 125 g ai/ha): 90
- Plant response rating, Kochia (kochia; 500 g ai/ha, approx. 10 d): 90
- Plant response rating: Mustard, Wild (wild mustard; 16 g ai/ha): 100
- Plant response rating: Mustard, Wild (wild mustard; 31 g ai/ha): 100
- Plant response rating: Mustard, Wild (wild mustard; 62 g ai/ha): 100
- Plant response rating: Mustard, Wild (wild mustard; 125 g ai/ha): 100
- Plant response rating: Russian Thistle (Russian thistle; 16 g ai/ha): 70
- Plant response rating: Russian Thistle (Russian thistle; 31 g ai/ha): 80
- Plant response rating: Russian Thistle (Russian thistle; 62 g ai/ha): 85
- Plant response rating: Russian Thistle (Russian thistle; 125 g ai/ha): 90
- Waterhemp plant response rating (0 to 100) (waterhemp; 31 g ai/ha): 100
- Waterhemp plant response rating (0 to 100) (waterhemp; 62 g ai/ha): 100
- Plant response rating (scale of 0 to 100 where 0 is no effect and 100 is complete control) (waterhemp): 100
- Plant response rating (0 to 100), Windgrass (windgrass [2]): 60
- Plant response rating: Windgrass (windgrass [2]; 62 g ai/ha): 100
- Plant response rating: Windgrass (windgrass [2]; 125 g ai/ha): 100
- Ryegrass, Italian plant response rating (0 to 100) (ryegrass, Italian; 31 g ai/ha): 50
- Ryegrass, Italian plant response rating (0 to 100) (ryegrass, Italian; 62 g ai/ha): 60
- Plant response rating (scale of 0 to 100 where 0 is no effect and 100 is complete control) (ryegrass, Italian; 125 g ai/ha): 90
- Plant response rating (scale of 0 to 100 where 0 is no effect and 100 is complete control) (ryegrass, Italian; 250 g ai/ha): 90
